Source: US20240199605A1, “SMALL MOLECULAR INHIBITORS OF NF-kB INDUCING KINASE” (Janssen Pharmaceutica NV, priority 2019, published 2024)

Columns and labels:
[1] = system: p-IKKα levels in L363 (NIK translocated multiple myeloma) cells; assay: Effect of compounds on p-IKKα levels in L363 cells (AlphaLISA SureFire Ultra); assay type: cell-based, human; details: Homo sapiens, L-363, 6 h, BAFF stimulated, MG132, 6 h, average of values, read-out: Assay 2 IC50
How it was run: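 Inhibition of p-IKKα (Ser176/180) read by AlphaLISA after 6 h, 37 °C compound exposure (11-point 1:3 series, 0.3% DMSO) of L363 cells pre-incubated overnight ± 250 ng/ml BAFF and plated ± BAFF ± 10 μM MG132. Normalised to BAFF/MG132/DMSO and unstimulated controls; IC50 by sigmoidal fitting, duplicates.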

[2] = biological target: recombinant human NF-kappaB-inducing kinase (NIK/MAP3K14) (Homo sapiens (Human), UniProt Q99558); assay: Inhibition of auto-phosphorylation of recombinant human NIK/MAP3K14 (AlphaScreen); assay type: biochemical; details: NIK auto-phosphorylation, 5 μM ATP, 1 nM NIK, 2 h at 25° C.; average of values
Chain of recombinant human NF-kappaB-inducing kinase (NIK/MAP3K14) (Q99558 whole entry): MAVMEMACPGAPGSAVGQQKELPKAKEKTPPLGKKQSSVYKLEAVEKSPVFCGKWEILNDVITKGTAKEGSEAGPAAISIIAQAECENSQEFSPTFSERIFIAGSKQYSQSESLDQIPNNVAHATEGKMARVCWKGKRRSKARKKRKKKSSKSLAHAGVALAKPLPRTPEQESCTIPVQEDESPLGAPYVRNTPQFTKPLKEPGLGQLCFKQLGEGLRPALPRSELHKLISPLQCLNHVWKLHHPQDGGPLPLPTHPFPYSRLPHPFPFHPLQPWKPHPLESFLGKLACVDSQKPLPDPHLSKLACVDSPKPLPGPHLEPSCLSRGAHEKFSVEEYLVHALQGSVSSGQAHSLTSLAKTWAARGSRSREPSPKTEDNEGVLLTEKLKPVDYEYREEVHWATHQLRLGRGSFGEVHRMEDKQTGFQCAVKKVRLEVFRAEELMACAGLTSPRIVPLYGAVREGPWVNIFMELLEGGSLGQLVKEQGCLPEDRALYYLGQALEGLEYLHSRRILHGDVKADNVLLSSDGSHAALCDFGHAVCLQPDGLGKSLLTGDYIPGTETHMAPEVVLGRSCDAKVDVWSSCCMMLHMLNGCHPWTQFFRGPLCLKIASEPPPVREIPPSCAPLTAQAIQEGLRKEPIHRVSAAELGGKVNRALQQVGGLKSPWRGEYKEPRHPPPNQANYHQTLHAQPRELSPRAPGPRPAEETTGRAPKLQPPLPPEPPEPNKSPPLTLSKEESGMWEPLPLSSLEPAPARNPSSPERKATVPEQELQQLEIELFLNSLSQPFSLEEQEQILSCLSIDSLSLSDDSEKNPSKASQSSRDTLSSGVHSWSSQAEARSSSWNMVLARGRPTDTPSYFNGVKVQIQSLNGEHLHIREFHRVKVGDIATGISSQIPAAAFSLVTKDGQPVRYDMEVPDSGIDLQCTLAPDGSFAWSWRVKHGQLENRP
How it was run: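 GST-tagged NIK (1 nM) auto-phosphorylated with 5 μM ATP for 2 h at 25° C. in 50 mM Tris pH 7.5, 5 mM MgCl2, 1 mM EGTA, 1 mM DTT, 0.1 mM Na3VO4, 0.01% Tween 20 (0.7% DMSO). Detected by AlphaScreen via anti-phospho-IKK Ser176/180 antibody; IC50 from sigmoidal fit of % inhibition versus log concentration.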

| SMILES | IC50 [1] | IC50 [2] |
| --- | --- | --- |
| CN1CC[C@@](O)(C#Cc2cccc(-c3ccc4ncnc(NC5CCC5)c4n3)c2)C1=O [Example 236, (R)-3-((3-(4-(Cyclobutylamino)pyrido[3,2-d]pyrimidin-6-yl)phenyl)ethynyl)-3-hydroxy-1-methylpyrrolidin-2-one] | 1370 nM | 57 nM |
| Cc1nnc([C@](C)(O)C#Cc2ccc(C)c(-c3ccc4ccnc(N)c4c3)c2)o1 [Example 78, (R)-4-[3-(1-Amino-7-isoquinolyl)-4-methyl-phenyl]-2-(5-methyl-1,3,4-oxadiazol-2-yl)but-3-yn-2-ol] | > 5000 nM | 840 nM |
| CC1(C)CC[C@](O)(C#Cc2cccc(-c3ccc4ncnc(N)c4n3)c2)C1=O [Example 132, (S)-2-[2-[3-(4-Aminopyrido[3,2-d]pyrimidin-6-yl)phenyl]ethynyl]-2-hydroxy-5,5-dimethyl-cyclopentanone] | 730 nM | 46 nM |
| CN1CC[C@@](O)(C#Cc2cccc(-c3cc(Br)c4ncnc(N)c4n3)c2)C1=O [Example 253, (R)-3-((3-(4-Amino-8-bromopyrido[3,2-d]pyrimidin-6-yl)phenyl)ethynyl)-3-hydroxy-1-methylpyrrolidin-2-one] | 5.1 nM | 0.4 nM |
| CN1CC[C@@](O)(C#Cc2cccc(-c3ccc4ccnc(N5CCC5)c4c3)c2)C1=O [Example 234, (R)-3-((3-(1-(Azetidin-1-yl)isoquinolin-7-yl)phenyl)ethynyl)-3-hydroxy-1-methylpyrrolidin-2-one] | > 5000 nM | 1800 nM |
| Cc1nc(N)c2nc(-c3cccc(C#CC4(O)CCCc5cccnc54)c3)ccc2n1 (racemic) [Example 165, racemic-8-((3-(4-Amino-2-methylpyrido[3,2-d]pyrimidin-6-yl)phenyl)ethynyl)-5,6,7,8-tetrahydroquinolin-8-ol] | > 5000 nM | 120 nM |
| CN1CCC(O)(C#Cc2cccc(-c3ccc4ccnc(N)c4n3)c2)C1=O (stereo in doubt) [Example 19, (R)-3-[2-[3-(8-Amino-1,7-naphthyridin-2-yl)phenyl]ethynyl]-3-hydroxy-1-methyl-pyrrolidin-2-one] | 9.9 nM | ≤ 0.5 nM |
| CN1CC[C@@](O)(C#Cc2cccc(-c3nc(N(C)C)c4ccnc(N)c4n3)c2)C1=O [Example 58, (R)-3-((3-(8-Amino-4-(dimethylamino)pyrido[3,4-d]pyrimidin-2-yl)phenyl)ethynyl)-3-hydroxy-1-methylpyrrolidin-2-one] | 15 nM | 0.7 nM |
| O=c1[nH]ccc2cnc(-c3cccc(C#CC4(O)CCc5cccnc54)c3)nc12 (stereo in doubt) [Example 47, (R)-2-[3-[2-(7-Hydroxy-5,6-dihydrocyclopenta[b]pyridin-7-yl)ethynyl]phenyl]-7H-pyrido[3,4-d]pyrimidin-8-one] | 1600 nM | 42 nM |
| CN1CC[C@@](O)(C#Cc2ccc(OC(F)(F)F)c(-c3ccc4ncnc(N)c4n3)c2)C1=O [Example 271, (R)-3-((3-(4-Aminopyrido[3,2-d]pyrimidin-6-yl)-4-(trifluoromethoxy)phenyl)ethynyl)-3-hydroxy-1-methylpyrrolidin-2-one] | 44 nM | 4.2 nM |
| Cc1nc(-c2cccc(C#C[C@@]3(O)CCN(C)C3=O)c2)nc2c(N)ncnc12 [Example 5, (S)-3-((3-(8-Amino-4-methylpyrimido[5,4-d]pyrimidin-2-yl)phenyl)ethynyl)-3-hydroxy-1-methylpyrrolidin-2-one] | 1560 nM | 230 nM |
| Cc1c(C#C[C@]2(O)CCN(C)C2=O)cccc1-c1nc2c(N)ncnc2s1 [Example 154, (R)-3-((3-(7-Aminothiazolo[5,4-d]pyrimidin-2-yl)-2-methylphenyl)ethynyl)-3-hydroxy-1-methylpyrrolidin-2-one] | > 5000 nM | 620 nM |
| Cc1ccc(C#C[C@]2(O)CCc3cccnc32)cc1-c1ccc2ccnc(N)c2c1 [Example 80, (R)-7-[2-[3-(1-Amino-7-isoquinolyl)-4-methyl-phenyl]ethynyl]-5,6-dihydrocyclopenta[b]pyridin-7-ol] | 4000 nM | 28 nM |
